Test results taken from patent publication US9999622B2, “Pyrazolothiazole compound and medicine comprising same” (NIPPON SHINYAKU CO., LTD., priority 2014, dated 2018).
Where a name gives a salt, the structure may show the parent alone.

Legend:
[1] = target: T1, JAK2 (Homo sapiens, UniProt O60674); test: JAK tyrosine kinase inhibitory activity in the presence of 1 mM ATP (ELISA), JAK2; format: biochemical
T1 construct: purchased Carna Biosciences, Inc
Procedure, shortened: (§1)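 Recombinant kinase (7.5 nM JAK1; 0.75 nM JAK2, JAK3 working dilutions) reacted 1 h at 30 °C with 1 mM ATP in Tris-HCl pH 7.5, Tween-20, DTT, on streptavidin plates. Phosphotyrosine detected by HRP anti-pTyr antibody ELISA, TMB absorbance at 450 nm; duplicate wells, DMSO as negative control.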

[2] = target: T2, JAK3 (Homo sapiens, UniProt P52333); test: JAK tyrosine kinase inhibitory activity in the presence of 1 mM ATP (ELISA), JAK3; format: biochemical
T2 construct: purchased Carna Biosciences, Inc
T2 sequence (P52333 1-1124): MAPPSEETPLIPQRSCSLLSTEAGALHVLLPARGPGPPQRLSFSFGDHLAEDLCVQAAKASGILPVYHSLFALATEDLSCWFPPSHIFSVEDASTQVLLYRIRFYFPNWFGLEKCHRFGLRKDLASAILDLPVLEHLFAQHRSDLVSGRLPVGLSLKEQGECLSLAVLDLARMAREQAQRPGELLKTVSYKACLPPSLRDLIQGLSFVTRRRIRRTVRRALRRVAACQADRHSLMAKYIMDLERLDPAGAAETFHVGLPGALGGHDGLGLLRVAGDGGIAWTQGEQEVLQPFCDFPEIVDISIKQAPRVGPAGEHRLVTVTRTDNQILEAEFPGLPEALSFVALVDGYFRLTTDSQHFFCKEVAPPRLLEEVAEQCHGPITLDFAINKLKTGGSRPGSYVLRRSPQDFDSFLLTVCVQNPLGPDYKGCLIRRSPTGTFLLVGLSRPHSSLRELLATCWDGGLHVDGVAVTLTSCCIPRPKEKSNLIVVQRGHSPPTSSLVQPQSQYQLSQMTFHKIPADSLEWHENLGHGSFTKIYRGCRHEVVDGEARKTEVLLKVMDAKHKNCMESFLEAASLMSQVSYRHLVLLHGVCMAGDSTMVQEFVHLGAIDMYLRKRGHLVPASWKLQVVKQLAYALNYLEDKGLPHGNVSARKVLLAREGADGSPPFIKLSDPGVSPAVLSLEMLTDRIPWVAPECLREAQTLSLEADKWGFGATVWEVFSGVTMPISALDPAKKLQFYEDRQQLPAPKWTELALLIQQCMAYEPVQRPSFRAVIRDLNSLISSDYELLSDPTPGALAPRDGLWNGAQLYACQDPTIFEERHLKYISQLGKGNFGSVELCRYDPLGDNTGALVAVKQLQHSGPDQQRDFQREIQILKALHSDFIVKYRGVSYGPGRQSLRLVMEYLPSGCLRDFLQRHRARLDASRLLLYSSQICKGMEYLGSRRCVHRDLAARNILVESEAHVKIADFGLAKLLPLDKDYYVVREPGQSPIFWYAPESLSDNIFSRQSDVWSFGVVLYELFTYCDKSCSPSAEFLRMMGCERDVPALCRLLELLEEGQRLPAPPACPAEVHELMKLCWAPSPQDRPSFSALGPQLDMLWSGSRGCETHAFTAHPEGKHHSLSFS
Procedure, shortened: as §1

[3] = tested on: Aspergillus-induced airway inflammation model; test: Inhibitory effect on Aspergillus-induced airway inflammation model; format: in vivo; details: mice; for inhibition in vivo at 10000 µg/mL, 100 mg/kg: Mus musculus, Eosinophil, po, 240 h, 10 mg/mL suspension at 10 mL/kg twice a day Day 0 to Day 9, BALF collected at Day 10, read-out: Inhibition rate on count of invasive eosinophil in BALF (%)
Description: Aspergillus fumigatus extracts (Greer laboratories, Inc.) were adjusted to 400 μg/mL with PBS. The Aspergillus fumigatus solutions thus prepared were administered to mice as nasal drops (50 μL) on Day 0, Day 1, Day 7 and Day 8. The nasal drop was administered one hour after the administration of test compounds in the morning. The test compound was administered twice a day in the morning and evening of Day 0 to Day 9. The test compound was suspended in 0.5% methylcellulose at 10 mg/mL, and orally administered at the dosage of 10 mL/kg. The bronchoalveolar lavage fluid (BALF) was collected at Day 10, and the total white blood cell count in BALF was measured using Celltac (NIHON KOHDEN). The ratio of eosinophil in total white blood cell was calculated using ADVIA 120 (Siemens Healthcare Diagnostics), and the ratio was multiplied by the total white blood cell count to determine the eosinophil count in BALF. The inhibition rate of the test compound was determined, assuming the inhibitory ratio in the treatment with Aspergillus fumigatus extract and 0.5% methylcellulose as 0% and the inhibitory ratio in the treatment without Aspergillus fumigatus extract but with 0.5% methylcellulose as 100%.

[4] = target: T3, JAK1 (Homo sapiens, UniProt P23458); test: JAK tyrosine kinase inhibitory activity in the presence of 1 mM ATP (ELISA), JAK1; format: biochemical
T3 construct: purchased Carna Biosciences, Inc
T3 sequence (P23458 whole entry): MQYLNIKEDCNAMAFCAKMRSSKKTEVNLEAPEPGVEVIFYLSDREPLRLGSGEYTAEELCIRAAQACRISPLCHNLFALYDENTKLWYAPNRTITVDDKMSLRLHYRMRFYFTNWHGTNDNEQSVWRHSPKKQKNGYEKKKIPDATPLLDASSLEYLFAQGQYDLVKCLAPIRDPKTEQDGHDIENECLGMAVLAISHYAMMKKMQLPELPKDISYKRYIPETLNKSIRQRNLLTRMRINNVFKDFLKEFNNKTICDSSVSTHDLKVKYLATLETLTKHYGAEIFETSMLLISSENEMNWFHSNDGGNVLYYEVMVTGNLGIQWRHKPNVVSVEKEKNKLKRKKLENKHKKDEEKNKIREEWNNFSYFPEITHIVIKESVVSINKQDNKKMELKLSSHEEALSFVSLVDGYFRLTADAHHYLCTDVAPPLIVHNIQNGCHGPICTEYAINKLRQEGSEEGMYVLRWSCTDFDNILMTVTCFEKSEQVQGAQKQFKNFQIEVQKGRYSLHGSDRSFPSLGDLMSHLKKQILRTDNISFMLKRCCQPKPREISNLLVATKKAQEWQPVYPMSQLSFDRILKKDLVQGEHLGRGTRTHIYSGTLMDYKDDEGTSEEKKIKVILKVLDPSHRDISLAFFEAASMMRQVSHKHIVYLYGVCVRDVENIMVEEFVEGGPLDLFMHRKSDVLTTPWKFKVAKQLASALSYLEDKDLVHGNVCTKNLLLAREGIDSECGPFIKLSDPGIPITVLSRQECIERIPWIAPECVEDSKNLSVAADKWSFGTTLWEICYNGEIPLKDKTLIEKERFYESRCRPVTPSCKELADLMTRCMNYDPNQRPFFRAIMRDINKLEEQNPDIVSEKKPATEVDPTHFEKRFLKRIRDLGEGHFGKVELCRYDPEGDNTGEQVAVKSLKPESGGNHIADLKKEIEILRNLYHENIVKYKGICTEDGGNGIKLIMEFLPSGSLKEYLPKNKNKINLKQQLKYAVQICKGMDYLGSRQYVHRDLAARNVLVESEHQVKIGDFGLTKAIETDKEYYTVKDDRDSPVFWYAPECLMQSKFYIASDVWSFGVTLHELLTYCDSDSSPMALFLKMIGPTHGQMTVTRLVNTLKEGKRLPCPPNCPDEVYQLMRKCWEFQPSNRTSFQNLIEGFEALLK
Procedure, shortened: as §1

T1 sequence (O60674 whole entry): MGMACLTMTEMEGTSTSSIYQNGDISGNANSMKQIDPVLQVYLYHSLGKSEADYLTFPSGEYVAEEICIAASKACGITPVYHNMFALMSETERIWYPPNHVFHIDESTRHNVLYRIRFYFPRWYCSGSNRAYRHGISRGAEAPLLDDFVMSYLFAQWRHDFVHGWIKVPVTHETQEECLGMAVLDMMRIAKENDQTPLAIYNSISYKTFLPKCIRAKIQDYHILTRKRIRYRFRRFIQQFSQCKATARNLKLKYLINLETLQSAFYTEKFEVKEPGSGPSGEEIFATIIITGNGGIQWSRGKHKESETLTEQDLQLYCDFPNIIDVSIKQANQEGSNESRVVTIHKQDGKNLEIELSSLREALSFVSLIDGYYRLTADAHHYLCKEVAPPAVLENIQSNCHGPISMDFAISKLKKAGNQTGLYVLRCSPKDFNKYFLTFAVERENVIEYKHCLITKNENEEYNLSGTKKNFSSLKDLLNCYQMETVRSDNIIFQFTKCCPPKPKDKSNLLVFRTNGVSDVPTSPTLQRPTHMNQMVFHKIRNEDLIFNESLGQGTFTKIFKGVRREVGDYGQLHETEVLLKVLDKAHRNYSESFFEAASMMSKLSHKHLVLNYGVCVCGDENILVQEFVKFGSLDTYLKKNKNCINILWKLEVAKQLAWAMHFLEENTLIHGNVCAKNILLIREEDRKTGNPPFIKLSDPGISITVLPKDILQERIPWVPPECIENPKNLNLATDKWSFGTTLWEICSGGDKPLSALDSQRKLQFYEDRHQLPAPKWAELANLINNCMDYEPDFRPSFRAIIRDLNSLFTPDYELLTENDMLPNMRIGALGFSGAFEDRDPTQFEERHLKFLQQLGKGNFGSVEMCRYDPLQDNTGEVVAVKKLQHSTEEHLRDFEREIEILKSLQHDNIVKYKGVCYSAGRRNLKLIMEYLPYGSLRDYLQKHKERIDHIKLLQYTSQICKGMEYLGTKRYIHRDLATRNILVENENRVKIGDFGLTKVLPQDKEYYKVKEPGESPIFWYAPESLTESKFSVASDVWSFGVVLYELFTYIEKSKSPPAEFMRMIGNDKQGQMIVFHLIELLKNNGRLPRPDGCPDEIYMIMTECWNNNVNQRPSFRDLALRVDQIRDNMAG

SMILES | IC50 [1] | IC50 [2] | inhibition in vivo at 10000 µg/mL, 100 mg/kg [3] | IC50 [4] | Inhibition rate on count of invasive eosinophil in BALF (%) ([3]; oral, 10 mg/mL suspension at 10 mL/kg twice a day Day 0 to Day 9, BALF collected at Day 10)
C[C@H](Nc1cc(C(=O)N2CCC(NC(=O)C3CC3)CC2)nc(-c2cnn3ccsc23)n1)C1CC1 [Example 1, N-(1-{[6-{[(1S)-1-Cyclopropylethyl]amino}-2-(pyrazolo[5,1-b][1,3]thiazol-7-yl)pyrimidin-4-yl]carbonyl}piperidin-4-yl)cyclopropanecarboxamide hydrochloride] | 3400 nM | 3400 nM | 43% | 52 nM | –
C[C@@H](Nc1cc(C(=O)N2CCC(NC(=O)C3CC3)CC2)nc(-c2cnn3ccsc23)n1)C(C)(C)C [Example 16, N-(1-{[6-{[(2R)-3,3-Dimethylbutan-2-yl]amino}-2-(pyrazolo[5,1-b][1,3]thiazol-7-yl)pyrimidin-4-yl]carbonyl}piperidin-4-yl)cyclopropanecarboxamide] | 2200 nM | 2200 nM | 33% | 53 nM | –
C[C@H](Nc1cc(C(=O)N2CCC(O)CC2)nc(-c2cnn3ccsc23)n1)C1CC1 [Example 20, [6-{[(1S)-1-Cyclopropylethyl]amino}-2-(pyrazolo[5,1-b][1,3]thiazol-7-yl)pyrimidin-4-yl](4-hydroxypiperidin-1-yl)methanone hydrochloride] | 4700 nM | 4200 nM | 61% | 1400 nM | –
C[C@H](Nc1cc(C(=O)N2CCC(NC(=O)OC(C)(C)CF)CC2)nc(-c2cnn3ccsc23)n1)C1CC1 [Example 21, 1-Fluoro-2-methylpropan-2-yl (1-{[6-{[(1S)-1-cyclopropylethyl]amino}-2-(pyrazolo[5,1-b][1,3]thiazol-7-yl)pyrimidin-4-yl]carbonyl}piperidin-4-yl)carbamate hydrochloride] | 2200 nM | > 10000 nM | 47% | 230 nM | –
COC(=O)NC1CCN(C(=O)c2cc(N[C@@H](C)C(C)(C)C)nc(-c3cnn4ccsc34)n2)CC1 [Example 22, Methyl (1-{[6-{[(2S)-3,3-dimethylbutan-2-yl]amino}-2-(pyrazolo[5,1-b][1,3]thiazol-7-yl)pyrimidin-4 yl]carbonyl}piperidin-4-yl)carbamate] | 800 nM | 3700 nM | 57% | 130 nM | –
C[C@H](Nc1cc(C(=O)N2CCC(O)CC2)nc(-c2cnn3ccsc23)n1)C(C)(C)C [Example 23, [6-{[(2S)-3,3-Dimethylbutan-2-yl]amino}-2-(pyrazolo[5,1-b][1,3]thiazol-7-yl)pyrimidin-4-yl](4-hydroxypiperidin-1-yl)methanone] | 870 nM | 3300 nM | 31% | 860 nM | –
COC(=O)NC1CCN(C(=O)c2cc(N[C@H](C)C(C)C)nc(-c3cnn4ccsc34)n2)CC1 [Example 24, Methyl (1-{[6-{[(2R)-3-methylbutan-2-yl]amino}-2-(pyrazolo[5,1-b][1,3]thiazol-7-yl)pyrimidin-4-yl]carbonyl}piperidin-4-yl)carbamate hydrochloride] | 1500 nM | 4200 nM | 35% | 290 nM | –
COC(=O)NC1CCN(C(=O)c2cc(N[C@@H](C)C(C)C)nc(-c3cnn4ccsc34)n2)CC1 [Example 25, Methyl (l-{[6-{[(2S)-3-methylbutan-2-yl]amino}-2-(pyrazolo[5,1-b][1,3]thiazol-7-yl)pyrimidin-4-yl]carbonyl}piperidin-4-yl)carbamate hydrochloride] | 800 nM | 2000 nM | 30% | 200 nM | –
CC[C@@H](C)Nc1cc(C(=O)N2CCC(NC(=O)OC)CC2)nc(-c2cnn3ccsc23)n1.Cl [Example 127, Methyl [1-({6-[(2R)-butan-2-ylamino]-2-(pyrazolo[5,1-b][1,3]thiazol-7-yl)pyrimidin-4-yl}carbonyl)piperidin-4-yl]carbamate hydrochloride] | – | – | – | 590 nM | 38%
COC(=O)NC1CCN(C(=O)c2cc(N[C@@H]3CCN(C(=O)CC#N)C3)nc(-c3cnn4ccsc34)n2)CC1 [Example 201, Methyl 1-[6-[(3R)-1-(cyanoacetyl)pyrrolidin-3-yl]amino-2-(pyrazolo[5,1-b][1,3]thiazol-7-yl)pyrimidine-4-carbonyl]piperidin-4-ylcarbamate] | > 10000 nM | > 10000 nM | – | 120 nM | –
CCC(=O)NC1CCN(C(=O)c2cc(N[C@@H]3CCN(C(=O)CC#N)C3)nc(-c3cnn4ccsc34)n2)CC1 [Example 202, N-1-[6-[(3R)-1-(cyanoacetyl)pyrrolidin-3-yl]amino-2-(pyrazolo[5,1-b][1,3]thiazol-7-yl)pyrimidine-4-carbonyl]piperidin-4-ylpropanamide] | > 10000 nM | > 10000 nM | – | 300 nM | –
CCOC(=O)NC1CCN(C(=O)c2cc(N[C@@H]3CCN(C(=O)CC#N)C3)nc(-c3cnn4ccsc34)n2)CC1 [Example 203, Ethyl 1-[6-[(3R)-1-(cyanoacetyl)pyrrolidin-3-yl]amino-2-(pyrazolo[5,1-b][1,3]thiazol-7-yl)pyrimidine-4-carbonyl]piperidin-4-ylcarbamate] | > 10000 nM | > 10000 nM | – | 70 nM | –
N#CCC(=O)N1CC[C@H](Nc2cc(C(=O)N3CCC(NC(=O)C4CC4)CC3)nc(-c3cnn4ccsc34)n2)C1 [Example 204, N-1-[6-[(3S)-1-(cyanoacetyl)pyrrolidin-3-yl]amino-2-(pyrazolo[5,1-b][1,3]thiazol-7-yl)pyrimidine-4-carbonyl]piperidin-4-ylcyclopropanecarboxamide] | > 10000 nM | > 10000 nM | – | 2700 nM | –
COC(=O)NC1CCN(C(=O)c2cc(N[C@@H]3CCN(C(=O)C4CC4)C3)nc(-c3cnn4ccsc34)n2)CC1 [Example 205, Methyl 1-[6-[(3R)-1-(cyclopropanecarbonyl)pyrrolidin-3-yl]amino-2-(pyrazolo[5,1-b][1,3]thiazol-7-yl)pyrimidine-4-carbonyl]piperidin-4-ylcarbamate] | > 10000 nM | > 10000 nM | – | 850 nM | –
COC(=O)NC1CCN(C(=O)c2cc(N[C@@H]3CCN(C(=O)C4CCC4)C3)nc(-c3cnn4ccsc34)n2)CC1 [Example 206, Methyl 1-[6-[(3R)-1-(cyclobutanecarbonyl)pyrrolidin-3-yl]amino-2-(pyrazolo[5,1-b][1,3]thiazol-7-yl)pyrimidine-4-carbonyl]piperidin-4-ylcarbamate] | > 10000 nM | > 10000 nM | – | 940 nM | –
CCCC(=O)N1CC[C@@H](Nc2cc(C(=O)N3CCC(NC(=O)OC)CC3)nc(-c3cnn4ccsc34)n2)C1 [Example 207, Methyl 1-[6-[(3R)-1-butanoylpyrrolidin-3-yl]amino-2-(pyrazolo[5,1-b][1,3]thiazol-7-yl)pyrimidine-4-carbonyl]piperidin-4-ylcarbamate] | > 10000 nM | > 10000 nM | – | 410 nM | –
